Data: patent US20230295234A1, “ANTIMICROBIAL PEPTIDOMIMETICS” (SPEXIS AG, priority 2020, published 2023)
Bridge positions count the residues as written; N and C are the ends. Square brackets hold non-standard residues; d marks the D form. Peptide text beside a SMILES is read from it. Pro(4R-NH2) = N[C@H]1CN[C@H](C(=O)O)C1; Gly(N-2-aminoethyl) = NCCNCC(=O)O; Hyp = O=C(O)[C@@H]1C[C@@H](O)CN1; Gly(N(CH2)3NH2) = NCCCNCC(=O)O; Pen = CC(C)(S)[C@H](N)C(=O)O; dDab = NCC[C@@H](N)C(=O)O; Dab = NCC[C@H](N)C(=O)O; Nlys = NCCCCNCC(=O)O

What was measured:
[1] = system: Klebsiella pneumoniae SSI3010; conditions: SSI3010
Outline: (§1)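 First, bacterial colonies are suspended in saline and adjusted to 0.5 McFarland. Next, the suspension is diluted into cation-adjusted Mueller-Hinton II broth (approx. 5×10^5 CFU/mL). Finally, it is added to two-fold serially diluted peptide, with polysorbate 80 at 0.002% final.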

[2] = system: Escherichia coli ATCC 25922; conditions: ATCC 25922
Outline: as §1

[3] = system: Escherichia coli MCR-1 Af 45; conditions: MCR-1 Af 45
Outline: as §1

[4] = system: human red blood cells (hRBC); experiment: Hemolysis of human red blood cells; format: cell-based; conditions: red cells of human, 1 h
Outline: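 Percent hemolysis is OD540 of peptide-treated supernatant relative to water-lysed cells. Each peptide was tested at 200 μg/mL against 20% (v/v) washed human erythrocytes. Incubation was 1 h at 37 °C, 300 rpm.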

Row | Compound | Klebsiella pneumoniae SSI3010 MIC [1] | Escherichia coli ATCC 25922 MIC [2] | Escherichia coli MCR-1 Af 45 MIC [3] | Hemolysis at 0.2 g/L [4]
1 | CC[C@H](C)[C@H](NC(=O)CN(CCN)C(=O)[C@@H](NC(=O)[C@@H]1C[C@@H](O)CN1C(=O)CNCCCCN)C(C)C)C(=O)N[C@H](C(=O)N[C@@H](Cc1ccc(O)cc1)C(=O)N[C@@H]1C(=O)N[C@@H](CC(N)=O)C(=O)N[C@@H](CCCNC(=N)N)C(=O)N[C@@H](CCN)C(=O)N[C@@H]([C@@H](C)O)C(=O)N[C@H](CCN)C(=O)N[C@@H](CCCCN)C(=O)N[C@H](C(=O)N[C@@H](CCN)C(=O)N[C@@H](CCCNC(=N)N)C(=O)N[C@@H](Cc2ccc(O)cc2)C(=O)O)CSSC1(C)C)[C@@H](C)O [Example 49, Nlys-Hyp-Val-Ndab-Ile-Thr-Tyr-Pen-Asn-Arg-Dab-Thr-^DDab-Lys-Cys-Dab-Arg-Tyr] (H-[Nlys][Hyp]V[Gly(N-2-aminoethyl)]ITY[Pen]NR[Dab]T[dDab]KC[Dab]RY-OH; disulfide 8-15; N-terminus and C-terminus assumed) | 0.25 µg/mL | 0.125 µg/mL | 0.125 µg/mL | 0%
2 | CC[C@H](C)[C@H](NC(=O)[C@@H]1C[C@@H](O)CN1C(=O)[C@@H](NC(=O)CN(CCN)C(=O)CNCCN)C(C)C)C(=O)N[C@H](C(=O)N[C@@H](Cc1ccc(O)cc1)C(=O)N[C@@H]1C(=O)N[C@@H](CC(N)=O)C(=O)N[C@@H](CCCNC(=N)N)C(=O)N[C@@H](CCN)C(=O)N[C@@H]([C@@H](C)O)C(=O)N[C@H](CCN)C(=O)N[C@@H](CCCCN)C(=O)N[C@H](C(=O)N[C@@H](CCN)C(=O)N[C@@H](CCCNC(=N)N)C(=O)N[C@@H](Cc2ccc(O)cc2)C(=O)O)CSSC1(C)C)[C@@H](C)O [Example 54, Ndab-Ndab-Val-Hyp-Ile-Thr-Tyr-Pen-Asn-Arg-Dab-Thr-^DDab-Lys-Cys-Dab-Arg-Tyr] (H-[Gly(N-2-aminoethyl)][Gly(N-2-aminoethyl)]V[Hyp]ITY[Pen]NR[Dab]T[dDab]KC[Dab]RY-OH; disulfide 8-15) | 0.25 µg/mL | 0.125 µg/mL | 0.125 µg/mL | 0%
3 | CC[C@H](C)[C@H](NC(=O)[C@@H]1C[C@@H](O)CN1C(=O)[C@@H](NC(=O)CN(CCN)C(=O)CNCCCN)C(C)C)C(=O)N[C@H](C(=O)N[C@@H](Cc1ccc(O)cc1)C(=O)N[C@@H]1C(=O)N[C@@H](CC(N)=O)C(=O)N[C@@H](CCCNC(=N)N)C(=O)N[C@@H](CCN)C(=O)N[C@@H]([C@@H](C)O)C(=O)N[C@H](CCN)C(=O)N[C@@H](CCCCN)C(=O)N[C@H](C(=O)N[C@@H](CCN)C(=O)N[C@@H](CCCNC(=N)N)C(=O)N[C@@H](Cc2ccc(O)cc2)C(=O)O)CSSC1(C)C)[C@@H](C)O [Example 55, Norn-Ndab-Val-Hyp-Ile-Thr-Tyr-Pen-Asn-Arg-Dab-Thr-^DDab-Lys-Cys-Dab-Arg-Tyr] (H-[Gly(N(CH2)3NH2)][Gly(N-2-aminoethyl)]V[Hyp]ITY[Pen]NR[Dab]T[dDab]KC[Dab]RY-OH; disulfide 8-15) | 0.125 µg/mL | ≤0.03125 µg/mL | ≤0.03125 µg/mL | 0%
4 | CC[C@H](C)[C@H](NC(=O)[C@@H]1C[C@@H](O)CN1C(=O)[C@@H](NC(=O)CN(CCN)C(=O)CNCCCCN)C(C)C)C(=O)N[C@H](C(=O)N[C@@H](Cc1ccc(O)cc1)C(=O)N[C@@H]1C(=O)N[C@@H](CC(N)=O)C(=O)N[C@@H](CCCNC(=N)N)C(=O)N[C@@H](CCN)C(=O)N[C@@H]([C@@H](C)O)C(=O)N[C@H](CCN)C(=O)N[C@@H](CCCCN)C(=O)N[C@H](C(=O)N[C@@H](CCN)C(=O)N[C@@H](CCCNC(=N)N)C(=O)N[C@@H](Cc2ccc(O)cc2)C(=O)O)CSSC1(C)C)[C@@H](C)O [Example 56, Nlys-Ndab-Val-Hyp-Ile-Thr-Tyr-Pen-Asn-Arg-Dab-Thr-^DDab-Lys-Cys-Dab-Arg-Tyr] (H-[Nlys][Gly(N-2-aminoethyl)]V[Hyp]ITY[Pen]NR[Dab]T[dDab]KC[Dab]RY-OH; disulfide 8-15) | 0.125 µg/mL | 0.0625 µg/mL | 0.0625 µg/mL | 0%
5 | CC[C@H](C)[C@H](NC(=O)[C@@H]1C[C@@H](N)CN1C(=O)[C@@H](NC(=O)[C@@H]1C[C@@H](O)CN1C(=O)CNCCCN)C(C)C)C(=O)N[C@H](C(=O)N[C@@H](Cc1ccc(O)cc1)C(=O)N[C@@H]1C(=O)N[C@@H](CC(N)=O)C(=O)N[C@@H](CCCNC(=N)N)C(=O)N[C@@H](CCN)C(=O)N[C@@H]([C@@H](C)O)C(=O)N[C@H](CCN)C(=O)N[C@@H](CCCCN)C(=O)N[C@H](C(=O)N[C@@H](Cc2ccc(O)cc2)C(=O)N[C@@H](CCCNC(=N)N)C(=O)N[C@@H](Cc2ccc(O)cc2)C(=O)O)CSSC1(C)C)[C@@H](C)O [Example 58, Norn-Hyp-Val-Pro((4R)NH2)-Ile-Thr-Tyr-Pen-Asn-Arg-Dab-Thr-^DDab-Lys-Cys-Tyr-Arg-Tyr] (H-[Gly(N(CH2)3NH2)][Hyp]V[Pro(4R-NH2)]ITY[Pen]NR[Dab]T[dDab]KCYRY-OH; disulfide 8-15) | 0.25 µg/mL | 0.25 µg/mL | 0.125 µg/mL | 0%
6 | CC[C@H](C)[C@H](NC(=O)[C@@H]1C[C@@H](O)CN1C(=O)[C@@H](NC(=O)[C@@H]1C[C@@H](N)CN1C(=O)CNCCCCN)C(C)C)C(=O)N[C@H](C(=O)N[C@@H](Cc1ccc(O)cc1)C(=O)N[C@@H]1C(=O)N[C@@H](CC(N)=O)C(=O)N[C@@H](CCCNC(=N)N)C(=O)N[C@@H](CCN)C(=O)N[C@@H]([C@@H](C)O)C(=O)N[C@H](CCN)C(=O)N[C@@H](CCCCN)C(=O)N[C@H](C(=O)N[C@@H](Cc2ccc(O)cc2)C(=O)N[C@@H](CCCNC(=N)N)C(=O)N[C@@H](Cc2ccc(O)cc2)C(=O)O)CSSC1(C)C)[C@@H](C)O [Example 59, Nlys-Pro((4R)NH2)-Val-Hyp-Ile-Thr-Tyr-Pen-Asn-Arg-Dab-Thr-^DDab-Lys-Cys-Tyr-Arg-Tyr] (H-[Nlys][Pro(4R-NH2)]V[Hyp]ITY[Pen]NR[Dab]T[dDab]KCYRY-OH; disulfide 8-15; N-terminus and C-terminus assumed) | 0.25 µg/mL | 0.25 µg/mL | 0.125 µg/mL | 0%

Continued, in another order:

Row | Klebsiella pneumoniae SSI3010 MIC [1] | Escherichia coli ATCC 25922 MIC [2] | Escherichia coli MCR-1 Af 45 MIC [3] | Compound | Hemolysis at 0.2 g/L [4]
7 | 0.125 µg/mL | 0.125 µg/mL | 0.0625 µg/mL | CC[C@H](C)[C@H](NC(=O)[C@@H]1C[C@@H](O)CN1C(=O)[C@@H](NC(=O)[C@@H]1C[C@@H](N)CN1C(=O)[C@@H](N)CCCCN)C(C)C)C(=O)N[C@H](C(=O)N[C@@H](Cc1ccc(O)cc1)C(=O)N[C@@H]1C(=O)N[C@@H](CC(N)=O)C(=O)N[C@@H](CCCNC(=N)N)C(=O)N[C@@H](CCN)C(=O)N[C@@H]([C@@H](C)O)C(=O)N[C@H](CCN)C(=O)N[C@@H](CCCCN)C(=O)N[C@H](C(=O)N[C@@H](CCN)C(=O)N[C@@H](CCCNC(=N)N)C(=O)N[C@@H](Cc2ccc(O)cc2)C(=O)O)CSSC1(C)C)[C@@H](C)O [Example 50, Lys-Pro((4R)NH2)-Val-Hyp-Ile-Thr-Tyr-Pen-Asn-Arg-Dab-Thr-^DDab-Lys-Cys-Dab-Arg-Tyr] (HELM PEPTIDE1{K.[N[C@@H]1C[C@@H](C(=O)[*:2])N([*:1])C1].V.[Hyp].I.T.Y.[Pen].N.R.[Dab].T.[NCC[C@@H](N[*:1])C(=O)[*:2]].K.C.[Dab].R.Y}$PEPTIDE1,PEPTIDE1,8:R3-15:R3$$$V2.0) | 0%
8 | 0.0625 µg/mL | 0.0625 µg/mL | ≤0.03125 µg/mL | CC[C@H](C)[C@H](NC(=O)[C@@H]1C[C@@H](O)CN1C(=O)[C@@H](NC(=O)CN(CCN)C(=O)[C@@H](N)CCCCN)C(C)C)C(=O)N[C@H](C(=O)N[C@@H](Cc1ccc(O)cc1)C(=O)N[C@@H]1C(=O)N[C@@H](CC(N)=O)C(=O)N[C@@H](CCCNC(=N)N)C(=O)N[C@@H](CCN)C(=O)N[C@@H]([C@@H](C)O)C(=O)N[C@H](CCN)C(=O)N[C@@H](CCCCN)C(=O)N[C@H](C(=O)N[C@@H](CCN)C(=O)N[C@@H](CCCNC(=N)N)C(=O)N[C@@H](Cc2ccc(O)cc2)C(=O)O)CSSC1(C)C)[C@@H](C)O [Example 53, Lys-Ndab-Val-Hyp-Ile-Thr-Tyr-Pen-Asn-Arg-Dab-Thr-^DDab-Lys-Cys-Dab-Arg-Tyr] (HELM PEPTIDE1{K.[NCCN(CC(=O)[*:2])[*:1]].V.[Hyp].I.T.Y.[Pen].N.R.[Dab].T.[NCC[C@@H](N[*:1])C(=O)[*:2]].K.C.[Dab].R.Y}$PEPTIDE1,PEPTIDE1,8:R3-15:R3$$$V2.0) | 0%
9 | 0.25 µg/mL | 0.25 µg/mL | 0.125 µg/mL | CC[C@H](C)[C@H](NC(=O)[C@@H]1C[C@@H](N)CN1C(=O)[C@@H](NC(=O)[C@@H]1C[C@@H](O)CN1C(=O)[C@@H](N)CCCCN)C(C)C)C(=O)N[C@H](C(=O)N[C@@H](Cc1ccc(O)cc1)C(=O)N[C@@H]1C(=O)N[C@@H](CC(N)=O)C(=O)N[C@@H](CCCNC(=N)N)C(=O)N[C@@H](CCN)C(=O)N[C@@H]([C@@H](C)O)C(=O)N[C@H](CCN)C(=O)N[C@@H](CCCCN)C(=O)N[C@H](C(=O)N[C@@H](Cc2ccc(O)cc2)C(=O)N[C@@H](CCCNC(=N)N)C(=O)N[C@@H](Cc2ccc(O)cc2)C(=O)O)CSSC1(C)C)[C@@H](C)O [Example 57, Lys-Hyp-Val-Pro((4R)NH2)-Ile-Thr-Tyr-Pen-Asn-Arg-Dab-Thr-^DDab-Lys-Cys-Tyr-Arg-Tyr] (HELM PEPTIDE1{K.[Hyp].V.[N[C@@H]1C[C@@H](C(=O)[*:2])N([*:1])C1].I.T.Y.[Pen].N.R.[Dab].T.[NCC[C@@H](N[*:1])C(=O)[*:2]].K.C.Y.R.Y}$PEPTIDE1,PEPTIDE1,8:R3-15:R3$$$V2.0) | 0%
